Reference: patent US7973219B2, “Method for producing transgenic plants resistant to weed control compounds which disrupt the porphyrin pathways of plants” (Sumitomo Chemical Company, Limited, priority 1998, dated 2011)
Where two headings read alike, the source gives them in different places.

Assays:
[1] = tested on: E. coli BT3/pACYCSP+pTV118N strain; experiment: Growth of E. coli BT3/pACYCSP+pTV118N (vector control) with herbicidal compound; assay type: cell-based; details: Escherichia coli, 18 h, 18 hours culture
Excerpt: (§1) According to the description of Gibson, L. C. D. et al., Proc. Natl. Acad. Sci. USA, 92; p 1941 (1995), the DNA fragment containing bchH gene prepared in Example 1 was digested with the restriction enzymes NdeI and BglII. The resultant DNA fragment was inserted between NdeI restriction site and BamHI restriction site of expression vector pET11a (manufactured by Stratagene) to obtain plasmid pETBCH (FIG. 1). This plasmid pETBCH was introduced into E. coli BL21(DE3) strain competent cells (manufactured by Stratagene) according to the manual attached to the competent cells to obtain E. coli BL21(DE3)/pETBCH strain. The strain was inoculated into 1.5 ml LB liquid culture medium (1% tryptone, 0.5% yeast extract, 0.5% NaCl) containing 100 μg/ml ampicillin in a tube (14×10 mm), and the tube was covered with aluminum foil (hereinafter referred to as dark conditions), cultured with shaking at 37° C. under light of fluorescent lamp (about 8000 lux). When the absorbance at 600 nm of the liquid culture medium became about 0.6, isopropyl β-D-thiogalactopyranoside (IPTG) was added to the liquid culture medium so that the final concentration was 0.4 mM, and the culture was continued for about additional 20 hours. […] In contrast to this, when E. coli BL21(DE3)/pETBCH strain was cultured according to the same manner (with IPTG) except that the tube was not covered with aluminum foil (hereinafter referred to as light conditions), E. coli grew and turned red as above.
Plasmids pTVBCH and pTV118N respectively were introduced into E. coli BT3/pACYCSP strain prepared in Example 3 according to the method described in Hanahan, D. J., Mol. Biol., 166; p 557 (1983). The resultant E. coli were cultured in YPT medium containing 100 μg/ml ampicillin, 15 μg/ml chloramphenicol and 10 μg/ml kanamycin to obtain E. coli BT3/pACYCSP+pTVBCH strain bearing plasmids pACYCSP and pTVBCH, and E. coli BT3/pACYCSP+pTV118N strain bearing plasmids pACYCSP and pTV118N.
(§2) These strains were inoculated into YPT medium containing 10 or 1 ppm of the PPO inhibitory-type herbicidal compound represented by the above Structure 8, 100 μg/ml ampicillin, 15 μg/ml chloramphenicol, 10 μg/ml kanamycin, 10 μg/ml hemin and 50 μg/ml aminolevulinic acid, cultured under dark conditions or light conditions according to the same manner as in Example 2. Then, 18 hours after initiation of culture, the absorbance of the liquid culture medium was measured at 600 nm. By taking the absorbance of the medium without the herbicidal compound as 1, the relative value of the absorbance of the medium containing the herbicidal compound was calculated.
(§3) Further, these strains were inoculated into YPT medium containing PPO inhibitory-type herbicidal compounds represented by the above Structures 1, 14, 15, 18-22, 29, 32, 33, 34 and 36, respectively, 100 μg/ml ampicillin, 15 μg/ml chloramphenicol, 10 μg/ml kanamycin, 10 μg/ml hemin and 50 μg/ml aminolevulinic acid, cultured under dark conditions or light conditions similar to the Example 2. Then, 18 hours after initiation of culture, the absorbance of liquid culture medium was measured at 600 nm. By taking the absorbance of the medium without the herbicidal compound as 1, the relative value of the absorbance of the medium containing the herbicidal compound was calculated.
Plasmids pTVGMP and pTV118N prepared in Example 11 were introduced into E. coli BT3/pACYCSP strain prepared in Example 3 respectively according to the method described in Flanahan, D. J., Mol. Biol., 166; p 557 (1983). E. coli BT3/pACYCSP+pTVGMP strain bearing plasmids pACYCSP and pTVGMP, and E. coli BT3/pACYCSP+pTV118N strain bearing plasmids pACYCSP and pTV118N were obtained by culturing the above strains in YPT medium containing 100 μg/ml ampicillin, 15 μg/ml chloramphenicol and 10 μg/ml kanamycin. […]

[2] = tested on: E. coli BT3/pACYCSP+pTVBCH strain; experiment: Growth of E. coli BT3/pACYCSP+pTVBCH (bchH) with herbicidal compound; assay type: cell-based; details: Escherichia coli, 18 h, 18 hours culture, Table 2
Excerpt: as §1, with “above. […]” for “above.”
as §2, §3

[3] = read-out: Relative absorbance, in the dark, Table 2
[4] = read-out: Relative absorbance, in the dark, Table 7 (Example 12)
[5] = read-out: Relative absorbance, in the dark, Table 9 (Example 17)
[6] = read-out: Relative absorbance, in the dark, Table 11 (Example 20)
[7] = read-out: Relative absorbance, in the dark, Table 13 (Example 23)
[8] = read-out: Relative absorbance, in the dark, Table 14 (Example 27)
[9] = read-out: Relative absorbance, in the light, Table 2
[10] = read-out: Relative absorbance, in the light, Table 7 (Example 12)
[11] = read-out: Relative absorbance, in the light, Table 9 (Example 17)
[12] = read-out: Relative absorbance, in the light, Table 11 (Example 20)
[13] = read-out: Relative absorbance, in the light, Table 13 (Example 23)
[14] = read-out: Relative absorbance, in the light, Table 14 (Example 27)
[15] = read-out: Relative absorbance, in the dark
[16] = read-out: Relative absorbance, in the light

C#CCOc1cc(N2C(=O)C3=C(CCCC3)C2=O)c(F)cc1Cl [Structure 8]
activity at 1 ppm [1, 3]: 77% | activity at 1 ppm [1, 4]: 91% | activity at 1 ppm [1, 5]: 91% | activity at 1 ppm [1, 6]: 91% | activity at 1 ppm [1, 7]: 91% | activity at 1 ppm [1, 8]: 98% | activity at 1 ppm ([1]; read-out: Relative absorbance, in the dark, Table 15 (Example 31)): 93% | activity at 1 ppm ([1]; read-out: Relative absorbance, in the dark, Table 16 (Example 31)): 81% | activity at 10 ppm [1, 3]: 68% | activity at 10 ppm [1, 4]: 89% | activity at 10 ppm [1, 5]: 80% | activity at 10 ppm [1, 6]: 80% | activity at 10 ppm [1, 7]: 81% | activity at 10 ppm [1, 8]: 96% | activity at 1 ppm [1, 9]: 31% | activity at 1 ppm [1, 10]: 9% | activity at 1 ppm [1, 11]: 24% | activity at 1 ppm [1, 12]: 24% | activity at 1 ppm [1, 13]: 8% | activity at 1 ppm [1, 14]: 16% | activity at 1 ppm ([1]; read-out: Relative absorbance, in the light, Table 15 (Example 31)): 7% | activity at 1 ppm ([1]; read-out: Relative absorbance, in the light, Table 16 (Example 31)): 15% | activity at 10 ppm [1, 9]: 18% | activity at 10 ppm [1, 10]: 5% | activity at 10 ppm [1, 11]: 12% | activity at 10 ppm [1, 12]: 12% | activity at 10 ppm [1, 13]: 6% | activity at 10 ppm [1, 14]: 6% | activity at 1 ppm [2, 15]: 106% | activity at 10 ppm [2, 15]: 90% | activity at 1 ppm [2, 16]: 77% | activity at 10 ppm [2, 16]: 80%
